The source of these data is PMC6428247, “Potent inhibitors of equine steroid isomerase EcaGST A3-3” (PLoS ONE, 2019).

For one test, the target named is T1, HsaGST M2-2 (Homo sapiens, UniProt P28161).
T1 construct: made in house
T1 sequence (P28161 1-218): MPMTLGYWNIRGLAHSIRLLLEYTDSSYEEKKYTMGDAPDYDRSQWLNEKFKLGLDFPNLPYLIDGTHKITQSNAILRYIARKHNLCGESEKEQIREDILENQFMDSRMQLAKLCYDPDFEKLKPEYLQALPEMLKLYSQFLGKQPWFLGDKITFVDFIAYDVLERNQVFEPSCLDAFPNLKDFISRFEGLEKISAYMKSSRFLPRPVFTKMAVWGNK
Nature of the test: Inhibition of HsaGST M2-2 CDNB activity. The note with it: 1 mM GSH, 1 mM CDNB, pH 6.5, 30°C; for IC50: CDNB activity, read-out: IC50 HsaGST M2-2. The format is biochemical. As to the method:
(§1) EcaGST A3-3 [10], HsaGST A3-3 [12] and HsaGST M2-2 [13] were cloned, expressed and purified as described previously. Protein concentration was determined by means of the Bradford assay.
(§2) The conjugation of GSH with the electrophilic substrate CDNB was used as a biochemical assay for general activity measurements. Screening of the US Drug library for inhibition was done in triplicates in 96-well plates in a Thermo Scientific Multiskan GO spectrophotometer. The conjugation activity at 30°C was monitored at 340 nm for 1 min in 0.1 M sodium phosphate buffer at pH 6.5 and 10 μM inhibitor concentration in a final volume of 300 μL. Initial concentrations of GSH and CDNB were 1 mM.
(§3) For understanding the effects of pharmacological interventions based on GST inhibitors, it is important to know the selectivity among the numerous GSTs. […] All values were determined with CDNB, which is a common substrate for all the enzymes.

Test [1] addresses T2, EcaGST A3-3 (Equus caballus, UniProt M9ZT87). Nature of the test: Inhibition of EcaGST A3-3 activity, GSH conjugation with CDNB. The settings on record: 1 mM GSH, 1 mM CDNB; for inhibition at 10 µM: read-out: Inhibition (%) of EcaGST A3-3. In kind it is biochemical, Equus ferus caballus. As to the method:
The final solvent concentration in the reaction system was kept at 5% (v/v) as a maximum.
as §2
Assay conditions for inhibition measurements of enzyme activity with CDNB were the following: EcaGST A3-3 15 nM, initial concentrations of GSH and CDNB 1 mM, inhibitor concentrations varying from 0.029 μM to 15 μM, in 100 mM Na2HPO4/NaH2PO4 at pH 6.5.
The reactions were followed spectrophotometrically for 1 min at 30°C using a Shimadzu UV-2501 PC spectrophotometer (Shimadzu Inc.). All experiments included triplicate measurements in each data point.
The equation for competitive inhibition fitted by non-linear regression was v=Vmax[S]/KM(1+[I]/Ki)+[S] where [S] is the substrate concentrations and [I] is the inhibitor concentration.

In another test the test system is HsaGST P1-1. Also on record: method as in PMID 23769903. The note with it: 3.3 μM inhibitor, 1 mM GSH, 1 mM CDNB, pH 6.5, 30°C; cited from earlier work.
Test [2] has as its target T2, EcaGST A3-3. Nature of the test: Inhibition of EcaGST A3-3 steroid double-bond isomerase activity with Δ^5-AD. The settings on record: 0.1 mM Δ^5-AD, 1 mM GSH, 25 mM sodium phosphate pH 8.0, 30°C. In kind it is biochemical, Equus ferus caballus.
For the next test, the system named is HsaGST S1-1. On the set-up: method as in PMID 25603235. The note with it: 1 mM GSH, 1 mM CDNB, pH 6.5, 30°C, cited from earlier work; for IC50: CDNB activity.
The target in another test is T3, HsaGST A3-3 (Homo sapiens, UniProt Q16772).
T3 construct: made in house
T3 sequence (Q16772 1-222): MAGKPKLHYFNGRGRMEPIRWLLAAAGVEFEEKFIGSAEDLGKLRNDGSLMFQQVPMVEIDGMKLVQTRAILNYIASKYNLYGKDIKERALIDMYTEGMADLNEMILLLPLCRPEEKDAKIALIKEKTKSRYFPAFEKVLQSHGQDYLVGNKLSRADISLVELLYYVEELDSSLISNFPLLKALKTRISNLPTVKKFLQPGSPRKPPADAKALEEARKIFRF
Nature of the test: Inhibition of HsaGST A3-3 CDNB activity. In kind it is biochemical. The settings on record: 1 mM GSH, 1 mM CDNB, pH 6.5, 30°C. How it is done:
as §1, §2, §3

Where [3] appears, read: 10 μM inhibitor, sodium phosphate pH 6.5, 30°C.

Where a name gives a salt, the structure may show the parent alone.

T2 sequence (M9ZT87 entry or part of it): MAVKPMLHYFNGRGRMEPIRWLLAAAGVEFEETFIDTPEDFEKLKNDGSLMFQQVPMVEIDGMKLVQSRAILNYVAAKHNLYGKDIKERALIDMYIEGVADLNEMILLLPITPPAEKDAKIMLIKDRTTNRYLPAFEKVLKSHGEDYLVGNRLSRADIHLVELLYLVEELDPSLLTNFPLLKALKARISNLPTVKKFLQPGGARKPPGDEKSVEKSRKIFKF

Regarding `OCCOCCN1CCN(C(c2ccccc2)c2ccc(Cl)cc2)CC1` (centres unmarked) [Hydroxyzine pamoate], the IC50 (commonly the concentration that inhibits the measured activity by half) on HsaGST M2-2 stood at 760 nM. Also, the inhibition (as a rule, the percentage by which the read-out fell short of the control) at 10 µM at EcaGST A3-3 [1] (setting [3]) was at most 30%. For `CC[C@H](C)C(=O)O[C@H]1C[C@@H](C)C=C2C=C[C@H](C)[C@H](CC[C@@H]3C[C@@H](O)CC(=O)O3)[C@H]21` [Lovastatin], the inhibition at 10 µM at EcaGST A3-3 [1] (setting [3]) was 33 ± 15%.

In the case of `COC(=O)Nc1nc2ccc(C(=O)c3ccccc3)cc2[nH]1` [Mebendazole], the inhibition at 10 µM on EcaGST A3-3 [1] (setting [3]) turned out to be 35 ± 15%. The same measure, in the same setting: the same measure for `CC(C)NCC(O)c1cc(O)cc(O)c1` (centres unmarked) [Metaproterenol]: 42 ± 24%. On to `COC(=O)C1=C(C)NC(C)=C(C(=O)OCC(C)C)C1c1ccccc1[N+](=O)[O-]` (centres unmarked) [Nisoldipine], for which the “Inhibition (%) of HsaGST P1-1” value with HsaGST P1-1 is 14%. Besides, the inhibition at 10 µM on HsaGST M2-2 (10 μM inhibitor, read-out: Inhibition (%) of HsaGST M2-2) was determined as 35%; at EcaGST A3-3 [1] (setting [3]), 75 ± 2.3%; on HsaGST A3-3 (pH 6.5, 10 μM inhibitor, read-out: Inhibition (%) of HsaGST A3-3), 70%. In addition, on EcaGST A3-3 [2], the “IC50 EcaGST A3-3, substrate Δ^5-AD” value is “Anomalous curve”. The “Inhibition (%) of HsaGST S1-1” value in the test on HsaGST S1-1 (10 μM inhibitor) is given as 42%. For the same compound, the IC50 was 29000 nM in the test with HsaGST S1-1 and 4100 nM against HsaGST A3-3 (CDNB activity). On EcaGST A3-3 [1] (100 mM sodium phosphate pH 6.5, 30°C), the “IC50 EcaGST A3-3, substrate CDNB” value is given as “Anomalous curve”.

With `CN1CCCN=C1/C=C/c1cccc(O)c1` [Oxantel pamoate], the IC50 on HsaGST M2-2 was 1700 nM. Turning to `CCc1ccc(CCOc2ccc(CC3SC(=O)NC3=O)cc2)nc1` (centres unmarked) [Pioglitazone], the IC50 on HsaGST M2-2 was 5900 nM.

Turning to `Nc1ccc(C(=O)[O-])cc1.[K+]` [Potassium p-aminobenzoate], the “Inhibition (%) of EcaGST A3-3” value on EcaGST A3-3 [1] (setting [3]) stood at 30±16%. For the compound `CN1CCCN=C1/C=C/c1cccs1` [Pyrantel pamoate], the half-maximal inhibitory concentration (IC50) on HsaGST M2-2 came out at 1400 nM. Same read-out and setting: the same measure for `Cc1cc(/C=C/c2ccc3cc(N(C)C)ccc3[n+]2C)c(C)n1-c1ccccc1` [Pyrvinium pamoate]: 1200 nM. Take `C[n+]1cc2c3c(ccc2c2ccc4cc5c(cc4c21)OCO5)OCO3` [Sanguinarine sulfate]: the inhibition at 10 µM at EcaGST A3-3 [1] (setting [3]) amounted to 47 ± 19%. On to `O=C(O)c1cc(/N=N/c2ccc(S(=O)(=O)Nc3ccccn3)cc2)ccc1O` [Sulfasalazine], for which, on HsaGST M2-2, the IC50 was 300 nM. The inhibition at 10 µM on EcaGST A3-3 [1] (setting [3]) is at most 30%.

As to `CC1=C(CC(=O)O)c2cc(F)ccc2/C1=C\c1ccc([S+](C)[O-])cc1` (centres unmarked) [Sulindac], on HsaGST M2-2, the IC50 came to 23000 nM.

As for `Cc1ccc(C(=O)Nc2ccc(S(=O)(=O)O)c3cc(S(=O)(=O)O)cc(S(=O)(=O)O)c23)cc1NC(=O)c1cccc(NC(=O)Nc2cccc(C(=O)Nc3cc(C(=O)Nc4ccc(S(=O)(=O)O)c5cc(S(=O)(=O)O)cc(S(=O)(=O)O)c45)ccc3C)c2)c1` [Suramin], the IC50 at HsaGST M2-2 is 620 nM; in the test with HsaGST S1-1, 300 nM. Further, the inhibition at 10 µM at EcaGST A3-3 [1] (setting [3]) is at most 30%.
